Columns and labels:
rat cardiac allografts [1] = experiment: Rat cardiac allograft study, Allograft Study 5, dose response (Table 23); format: in vivo; conditions: 30 mg/kg s.c.
rat cardiac allografts [2] = experiment: Rat cardiac allograft study, Allograft Study 4 (Table 22); conditions: s.c., GG5/3 3 mg/kg, compounds 30 mg/kg;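 note: heterotopic abdominal heart transplants from Lewis × Brown Norway F1 donors into male Lewis rats, graft beating checked daily by flank palpation, rejection defined as complete stop of heartbeat, transplant day 0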

In the case of `CC(C)OC(=O)[C@H](Cc1ccc(OC(=O)N2CCN(C)CC2)cc1)NC(=O)[C@H]1N(S(=O)(=O)c2cccnc2)CSC1(C)C` [listing 1 of 3 here], the “graft survival, data normalized to group size” value (from here on “graft survival, data normalized”) (rat cardiac allografts [1]; day 1) is reported as 100%, the “graft survival, data normalized” value (rat cardiac allografts [1]; day 2) is reported as 100% and the “graft survival, data normalized” value (rat cardiac allografts [1]; day 3) is reported as 100%. For the same molecule, the “graft survival, data normalized” value (rat cardiac allografts [1]; day 4) was 100%, the “graft survival, data normalized” value (rat cardiac allografts [1]; day 5) was 100% and the “graft survival, data normalized” value (rat cardiac allografts [1]; day 6) was 100%. For the same molecule, the “graft survival, data normalized” value (rat cardiac allografts [1]; day 7) was 100%, the “graft survival, data normalized” value (rat cardiac allografts [1]; day 8) was 100% and the “graft survival, data normalized” value (rat cardiac allografts [1]; day 9) was 100%. The “graft survival, data normalized” value (rat cardiac allografts [1]; day 10) was 100%, the “graft survival, data normalized” value (rat cardiac allografts [1]; day 11) was 100% and the “graft survival, data normalized” value (rat cardiac allografts [1]; day 12) was 100%. The “graft survival, data normalized” value (rat cardiac allografts [1]; day 13) was 100% and the “graft survival, data normalized” value (rat cardiac allografts [1]; day 14) was 100%.
In the case of `CC(C)OC(=O)[C@H](Cc1ccc(OC(=O)N2CCN(C)CC2)cc1)NC(=O)[C@H]1N(S(=O)(=O)c2cccnc2)CSC1(C)C` [listing 2 of 3 here], the “number of surviving grafts” value (rat cardiac allografts [2]; day 0) is reported as 6, the “number of surviving grafts” value (rat cardiac allografts [2]; day 1) is reported as 6 and the “number of surviving grafts” value (rat cardiac allografts [2]; day 2) is reported as 6. The “number of surviving grafts” value (rat cardiac allografts [2]; day 3) was 6, the “number of surviving grafts” value (rat cardiac allografts [2]; day 4) was 6 and the “number of surviving grafts” value (rat cardiac allografts [2]; day 5) was 6. The “number of surviving grafts” value (rat cardiac allografts [2]; day 6) was 6, the “number of surviving grafts” value (rat cardiac allografts [2]; day 7) was 6 and the “number of surviving grafts” value (rat cardiac allografts [2]; day 8) was 6. For the same molecule, the “number of surviving grafts” value (rat cardiac allografts [2]; day 9) was 5, the “number of surviving grafts” value (rat cardiac allografts [2]; day 10) was 4 and the “number of surviving grafts” value (rat cardiac allografts [2]; day 11) was 4. For the same molecule, the “number of surviving grafts” value (rat cardiac allografts [2]; day 12) was 4, the “number of surviving grafts” value (rat cardiac allografts [2]; day 13) was 4 and the “number of surviving grafts” value (rat cardiac allografts [2]; day 14) was 4. The “number of surviving grafts” value (rat cardiac allografts [2]; day 15) was 4, the “number of surviving grafts” value (rat cardiac allografts [2]; day 16) was 3 and the “number of surviving grafts” value (rat cardiac allografts [2]; day 17) was 3. The “number of surviving grafts” value (rat cardiac allografts [2]; day 18) was 3 and the “number of surviving grafts” value (rat cardiac allografts [2]; day 19) was 3.
With `CC(C)OC(=O)[C@H](Cc1ccc(OC(=O)N2CCN(C)CC2)cc1)NC(=O)[C@H]1N(S(=O)(=O)c2cccnc2)CSC1(C)C` [listing 3 of 3 here] the “percent of surviving grafts within a group” value (shortened to “percent”) (rat cardiac allografts [2]; day 0) was 100%, the “percent” value (rat cardiac allografts [2]; day 1) was 100% and the “percent” value (rat cardiac allografts [2]; day 2) was 100%. For the same molecule, the “percent” value (rat cardiac allografts [2]; day 3) was 100%, the “percent” value (rat cardiac allografts [2]; day 4) was 100% and the “percent” value (rat cardiac allografts [2]; day 5) was 100%. The “percent” value (rat cardiac allografts [2]; day 6) was 100%, the “percent” value (rat cardiac allografts [2]; day 7) was 100% and the “percent” value (rat cardiac allografts [2]; day 8) was 100%. The “percent” value (rat cardiac allografts [2]; day 9) was 83%, the “percent” value (rat cardiac allografts [2]; day 10) was 66% and the “percent” value (rat cardiac allografts [2]; day 11) was 66%. The “percent” value (rat cardiac allografts [2]; day 12) was 66%, the “percent” value (rat cardiac allografts [2]; day 13) was 66% and the “percent” value (rat cardiac allografts [2]; day 14) was 66%. For the same molecule, the “percent” value (rat cardiac allografts [2]; day 15) was 66%, the “percent” value (rat cardiac allografts [2]; day 16) was 50% and the “percent” value (rat cardiac allografts [2]; day 17) was 50%. The “percent” value (rat cardiac allografts [2]; day 18) was 50%, the “percent” value (rat cardiac allografts [2]; day 19) was 50% and the “number of surviving grafts” value (rat cardiac allografts [2]; day 20) was 2. The “percent” value (rat cardiac allografts [2]; day 20) was 33%, the “number of surviving grafts” value (rat cardiac allografts [2]; day 21) was 2 and the “percent” value (rat cardiac allografts [2]; day 21) was 33%. The “number of surviving grafts” value (rat cardiac allografts [2]; day 22) was 2, the “percent” value (rat cardiac allografts [2]; day 22) was 33% and the “number of surviving grafts” value (rat cardiac allografts [2]; day 23) was 2. The “percent” value (rat cardiac allografts [2]; day 23) was 33%, the “number of surviving grafts” value (rat cardiac allografts [2]; day 24) was 2 and the “percent” value (rat cardiac allografts [2]; day 24) was 33%. For the same molecule, the “number of surviving grafts” value (rat cardiac allografts [2]; day 25) was 2, the “percent” value (rat cardiac allografts [2]; day 25) was 33% and the “number of surviving grafts” value (rat cardiac allografts [2]; day 26) was 2. For the same molecule, the “percent” value (rat cardiac allografts [2]; day 26) was 33%, the “number of surviving grafts” value (rat cardiac allografts [2]; day 27) was 2 and the “percent” value (rat cardiac allografts [2]; day 27) was 33%. For the same molecule, the “number of surviving grafts” value (rat cardiac allografts [2]; day 28) was 2, the “percent” value (rat cardiac allografts [2]; day 28) was 33% and the “number of surviving grafts” value (rat cardiac allografts [2]; day 29) was 2. For the same molecule, the “percent” value (rat cardiac allografts [2]; day 29) was 33%, the “number of surviving grafts” value (rat cardiac allografts [2]; day 30) was 2 and the “percent” value (rat cardiac allografts [2]; day 30) was 33%. The “number of surviving grafts” value (rat cardiac allografts [2]; day 31) was 1, the “percent” value (rat cardiac allografts [2]; day 31) was 16% and the “number of surviving grafts” value (rat cardiac allografts [2]; day 32) was 1. For the same molecule, the “percent” value (rat cardiac allografts [2]; day 32) was 16%, the “number of surviving grafts” value (rat cardiac allografts [2]; day 33) was 1 and the “percent” value (rat cardiac allografts [2]; day 33) was 16%. For the same molecule, the “number of surviving grafts” value (rat cardiac allografts [2]; day 34) was 1, the “percent” value (rat cardiac allografts [2]; day 34) was 16% and the “number of surviving grafts” value (rat cardiac allografts [2]; day 35) was 1. For the same molecule, the “percent” value (rat cardiac allografts [2]; day 35) was 16%, the “number of surviving grafts” value (rat cardiac allografts [2]; day 36) was 1 and the “percent” value (rat cardiac allografts [2]; day 36) was 16%. For the same molecule, the “number of surviving grafts” value (rat cardiac allografts [2]; day 37) was 1, the “percent” value (rat cardiac allografts [2]; day 37) was 16% and the “number of surviving grafts” value (rat cardiac allografts [2]; day 38) was 1. For the same molecule, the “percent” value (rat cardiac allografts [2]; day 38) was 16%, the “number of surviving grafts” value (rat cardiac allografts [2]; day 39) was 1 and the “percent” value (rat cardiac allografts [2]; day 39) was 16%. The “number of surviving grafts” value (rat cardiac allografts [2]; day 40) was 1, the “percent” value (rat cardiac allografts [2]; day 40) was 16% and the “number of surviving grafts” value (rat cardiac allografts [2]; day 41) was 1. For the same molecule, the “percent” value (rat cardiac allografts [2]; day 41) was 16%, the “number of surviving grafts” value (rat cardiac allografts [2]; day 42) was 0 and the “percent” value (rat cardiac allografts [2]; day 42) was 0%.

Reference: patent US20060004019A1, “Steroid sparing agents and methods of using same” (priority 2004, published 2006)
